{"source": "ChEMBL document CHEMBL1149484", "about": "“Comparison of the binding of 3-fluoromethyl-7-sulfonyl-1,2,3,4-tetrahydroisoquinolines with their isosteric sulfonamides to the active site of phenylethanolamine N-methyltransferase” (J Med Chem, 2006)", "data": [{"system": "not listed separately", "test": "Selectivity for human PNMT over rat Adrenergic alpha-2 receptor", "values": [{"smiles": "c1ccc2c(c1)CCNC2", "note": "[1,2,3,4-TETRAHYDROISOQUINOLINE]", "Selectivity ratio": 0.06}]}, {"target": "T1, Adrenergic receptor alpha-2 (Rattus norvegicus, UniProt P22086+P19328+P22909)", "T1 sequence (P22086 whole entry)": "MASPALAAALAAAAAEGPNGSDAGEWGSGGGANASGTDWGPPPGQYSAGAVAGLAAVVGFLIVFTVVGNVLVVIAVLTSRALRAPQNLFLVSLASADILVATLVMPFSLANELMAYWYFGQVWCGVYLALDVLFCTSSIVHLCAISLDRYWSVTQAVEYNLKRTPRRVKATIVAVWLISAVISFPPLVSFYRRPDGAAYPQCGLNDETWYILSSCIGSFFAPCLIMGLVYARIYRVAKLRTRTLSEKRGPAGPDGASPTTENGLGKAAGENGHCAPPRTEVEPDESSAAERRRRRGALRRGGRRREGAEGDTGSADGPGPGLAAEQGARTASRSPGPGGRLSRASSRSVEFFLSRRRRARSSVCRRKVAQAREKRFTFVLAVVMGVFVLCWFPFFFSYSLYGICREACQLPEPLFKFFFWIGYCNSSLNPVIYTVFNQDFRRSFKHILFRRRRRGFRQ", "T1 sequence (P19328 whole entry)": "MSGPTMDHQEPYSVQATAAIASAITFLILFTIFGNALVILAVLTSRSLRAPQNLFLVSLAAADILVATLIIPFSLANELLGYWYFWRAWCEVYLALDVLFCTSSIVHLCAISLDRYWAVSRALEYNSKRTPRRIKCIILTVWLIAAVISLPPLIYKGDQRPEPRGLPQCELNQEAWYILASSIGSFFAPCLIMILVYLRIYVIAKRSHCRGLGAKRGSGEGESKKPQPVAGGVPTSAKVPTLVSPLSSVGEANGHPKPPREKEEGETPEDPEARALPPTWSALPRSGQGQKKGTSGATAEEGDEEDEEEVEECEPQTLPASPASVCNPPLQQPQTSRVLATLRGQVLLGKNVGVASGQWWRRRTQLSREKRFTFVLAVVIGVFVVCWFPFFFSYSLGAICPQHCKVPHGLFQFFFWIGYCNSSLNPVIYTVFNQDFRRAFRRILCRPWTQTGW", "T1 sequence (P22909 whole entry)": "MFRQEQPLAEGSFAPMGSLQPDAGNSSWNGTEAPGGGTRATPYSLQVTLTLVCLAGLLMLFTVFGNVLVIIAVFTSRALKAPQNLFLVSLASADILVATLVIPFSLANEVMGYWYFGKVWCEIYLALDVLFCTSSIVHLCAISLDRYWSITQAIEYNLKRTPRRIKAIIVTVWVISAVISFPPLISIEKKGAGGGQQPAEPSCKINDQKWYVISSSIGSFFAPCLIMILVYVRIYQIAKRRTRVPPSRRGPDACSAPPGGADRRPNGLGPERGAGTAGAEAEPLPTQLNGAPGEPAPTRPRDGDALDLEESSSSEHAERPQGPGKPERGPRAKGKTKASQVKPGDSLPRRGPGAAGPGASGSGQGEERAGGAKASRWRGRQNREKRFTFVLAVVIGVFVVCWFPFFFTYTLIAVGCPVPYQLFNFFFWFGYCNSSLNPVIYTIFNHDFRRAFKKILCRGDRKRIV", "test": "Displacement of [3H]clonidine from Sprague-Dawley rat cortex adrenergic alpha 2 receptor", "units": {"Ki": "µM"}, "values": [{"smiles": "CCCS(=O)(=O)c1ccc2c(c1)CNC(CF)C2", "note": "(stereo not given)", "Ki": 690}, {"smiles": "COCCCS(=O)(=O)c1ccc2c(c1)CNC(CF)C2", "note": "(stereo not given)", "Ki": 1200}, {"smiles": "CCCCS(=O)(=O)c1ccc2c(c1)CNC(CF)C2", "note": "(stereo not given)", "Ki": 540}, {"smiles": "O=S(=O)(CCC(F)(F)F)c1ccc2c(c1)CNC(CF)C2", "note": "(stereo not given)", "Ki": "> 1000"}, {"smiles": "CCS(=O)(=O)c1ccc2c(c1)CNC(CF)C2", "note": "(stereo not given)", "Ki": 1100}, {"smiles": "O=S(=O)(Cc1ccc(Cl)cc1)c1ccc2c(c1)CNC(CF)C2", "note": "(stereo not given)", "Ki": "> 1000"}, {"smiles": "O=S(=O)(CC(F)(F)F)c1ccc2c(c1)CNC(CF)C2", "note": "(stereo not given)", "Ki": 740}, {"smiles": "O=S(=O)(CCCC(F)(F)F)c1ccc2c(c1)CNC(CF)C2", "note": "(stereo not given)", "Ki": "> 1000"}]}, {"target": "T2, Phenylethanolamine N-methyltransferase (Homo sapiens, UniProt P11086)", "T2 sequence (P11086 whole entry)": "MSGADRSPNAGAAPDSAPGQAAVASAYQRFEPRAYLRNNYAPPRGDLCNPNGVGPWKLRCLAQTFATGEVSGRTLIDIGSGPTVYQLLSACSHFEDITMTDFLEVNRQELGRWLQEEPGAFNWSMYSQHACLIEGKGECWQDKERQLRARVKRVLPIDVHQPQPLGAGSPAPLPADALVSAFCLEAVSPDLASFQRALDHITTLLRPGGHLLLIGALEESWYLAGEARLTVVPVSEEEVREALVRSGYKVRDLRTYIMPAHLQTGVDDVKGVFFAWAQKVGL", "test": "Binding affinity to human PNMT expressed in Escherichia coli by radiochemical assay", "units": {"Ki": "µM"}, "values": [{"smiles": "c1ccc2c(c1)CCNC2", "note": "[1,2,3,4-TETRAHYDROISOQUINOLINE]", "Ki": 5.8}]}]}
